Source: US4401660A, “Ester derivatives of 5-O-mycaminosyl tylonolide and method of using same” (Eli Lilly and Company, priority 1981, dated 1983)
Where two headings read alike, the source gives them in different places.

Experiments:
[1] = system: Haemophilus influenzae Holt; experiment: MIC, standard agar-dilution assay (Table II); assay type: cell-based; set-up: unit not given here; conditions: ampicillin-sensitive strain
Procedure: (§1) The MIC's in Table II were determined by standard agar-dilution assays. The MIC's in Table III were obtained using a conventional broth-dilution microtiter test.

[2] = system: Haemophilus influenzae R252; experiment: MIC, standard agar-dilution assay (Table II); assay type: cell-based; set-up: unit not given here; conditions: Haemophilus influenzae R252, ampicillin-resistant strain
Procedure: as §1

[3] = system: Staphylococcus aureus S13E; experiment: MIC, standard agar-dilution assay (Table II); assay type: cell-based; set-up: unit not given here
Procedure: as §1

[4] = system: Staphylococcus aureus V41; experiment: MIC, standard agar-dilution assay (Table II); assay type: cell-based; set-up: unit not given here; conditions: Staphylococcus aureus V41, penicillin-resistant strain
Procedure: as §1

[5] = system: Staphylococcus aureus X1.1; experiment: MIC, standard agar-dilution assay (Table II); assay type: cell-based; set-up: unit not given here
Procedure: as §1

[6] = system: Staphylococcus aureus X400; experiment: MIC, standard agar-dilution assay (Table II); assay type: cell-based; set-up: unit not given here; conditions: Staphylococcus aureus X400, methicillin-resistant strain
Procedure: as §1

[7] = system: Staphylococcus epidermidis EPI1; experiment: MIC, standard agar-dilution assay (Table II); assay type: cell-based; set-up: unit not given here
Procedure: as §1

[8] = system: Staphylococcus epidermidis EPI2; experiment: MIC, standard agar-dilution assay (Table II); assay type: cell-based; set-up: unit not given here
Procedure: as §1

[9] = system: Streptococcus Group D 9960; experiment: MIC, standard agar-dilution assay (Table II); assay type: cell-based; set-up: unit not given here
Procedure: as §1

[10] = system: Streptococcus Group D X66; experiment: MIC, standard agar-dilution assay (Table II); assay type: cell-based; set-up: unit not given here
Procedure: as §1

[11] = system: Streptococcus pneumoniae Park I; experiment: MIC, standard agar-dilution assay (Table II); assay type: cell-based; set-up: unit not given here
Procedure: as §1

[12] = system: Streptococcus pyogenes C203; experiment: MIC, standard agar-dilution assay (Table II); assay type: cell-based; set-up: unit not given here
Procedure: as §1

[13] = system: Mycoplasma gallisepticum; experiment: MIC, broth-dilution microtiter test (Table III); assay type: cell-based; set-up: unit not given here
Procedure: as §1

[14] = system: Mycoplasma hyorhinis; experiment: MIC, broth-dilution microtiter test (Table III); assay type: cell-based; set-up: unit not given here
Procedure: as §1

[15] = system: Mycoplasma synoviae; experiment: MIC, broth-dilution microtiter test (Table III); assay type: cell-based; set-up: unit not given here
Procedure: as §1

[16] = system: Pasteurella multocida 17E; experiment: MIC, broth-dilution microtiter test (Table III); assay type: cell-based; set-up: unit not given here; conditions: bovine isolate
Procedure: as §1

[17] = system: Pasteurella multocida 60A; experiment: MIC, broth-dilution microtiter test (Table III); assay type: cell-based; set-up: unit not given here; conditions: avian isolate
Procedure: as §1

[18] = system: Staphylococcus aureus; experiment: MIC, broth-dilution microtiter test (Table III); assay type: cell-based; set-up: unit not given here
Procedure: as §1

[19] = system: Streptococcus sp. 80; experiment: MIC, broth-dilution microtiter test (Table III); assay type: cell-based; set-up: unit not given here
Procedure: as §1

[20] = system: Streptococcus pyogenes C203; experiment: ED50 in mice with experimental infections (Table IV); assay type: in vivo; conditions: Streptococcus pyogenes, doses given 1 and 4 hours postinfection
Procedure: The OMT ester derivatives of this invention have shown in vivo antimicrobial activity against experimental bacterial infections caused by gram-positive bacteria. When two doses of test compound were administered to mice with experimental infections, the activity observed was measured as an ED50 value [effective dose in mg/kg to protect 50% of the test animals: see Warren Wick, et al., J. Bacteriol. 81, 233-235 (1961)].
^a mg/kg × 2; doses given 1 and 4 hours postinfection

[21] = system: Pasteurella multocida; experiment: Treatment of Pasteurella infections in chicks (Table V); assay type: in vivo, one-day-old chicks; conditions: Pasteurella multocida, sc, 4 h; 30 mg/kg by subcutaneous injection one and four hours post challenge; read-out: Deaths in Treated Chicks/Number Treated (converted)
Method in brief: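 Dosing was 30 mg/kg by subcutaneous injection, one and four hours after challenge. Day-old chicks received 0.1 ml of a 10^-3 dilution of a 20-hour tryptose broth culture of avian P. multocida subcutaneously. Nonmedicated infected chicks served as controls, ten per group.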

[22] = system: Pasteurella haemolytica 22C; experiment: MIC, broth-dilution microtiter test (Table III); assay type: cell-based; set-up: unit not given here
Procedure: as §1

[23] = system: Pasteurella haemolytica 23C; experiment: MIC, broth-dilution microtiter test (Table III); assay type: cell-based; set-up: unit not given here
Procedure: as §1

[24] = system: Pasteurella haemolytica 41D; experiment: MIC, broth-dilution microtiter test (Table III); assay type: cell-based; set-up: unit not given here
Procedure: as §1

[25] = system: Pasteurella multocida 22A; experiment: MIC, broth-dilution microtiter test (Table III); assay type: cell-based; set-up: unit not given here
Procedure: as §1

[26] = system: Pasteurella multocida 40G; experiment: MIC, broth-dilution microtiter test (Table III); assay type: cell-based; set-up: unit not given here
Procedure: as §1

[27] = system: Pasteurella multocida 68C; experiment: MIC, broth-dilution microtiter test (Table III); assay type: cell-based; set-up: unit not given here
Procedure: as §1

SMILES	minimal inhibitory concentration (MIC) [1]	minimal inhibitory concentration (MIC) [2]	minimal inhibitory concentration (MIC) [3]	minimal inhibitory concentration (MIC) [4]	minimal inhibitory concentration (MIC) [5]	minimal inhibitory concentration (MIC) [6]	minimal inhibitory concentration (MIC) [7]	minimal inhibitory concentration (MIC) [8]	minimal inhibitory concentration (MIC) [9]	minimal inhibitory concentration (MIC) [10]	minimal inhibitory concentration (MIC) [11]	minimal inhibitory concentration (MIC) [12]	minimal inhibitory concentration (MIC) [13]	minimal inhibitory concentration (MIC) [14]	minimal inhibitory concentration (MIC) [15]	minimal inhibitory concentration (MIC) [16]	minimal inhibitory concentration (MIC) [17]	minimal inhibitory concentration (MIC) [18]	minimal inhibitory concentration (MIC) [19]	mortality at 30 mg/kg [21]	also measured
CCC1OC(=O)CC(O)C(C)C(OC2OC(C)C(O)C(N(C)C)C2O)C(CC=O)CC(C)C(=O)C=CC(C)=CC1COC(=O)CC(C)C (centres unmarked) [Compound 22]	2	4	0.25	0.25	0.25	0.5	0.25	0.25	0.5	0.5	0.125	0.25	< 0.05	0.78	< 0.05	1.56	3.12	0.78	0.097	10%	ED50 ([20]; C203, oral, read-out: ED50, Oral): > 150 mg/kg; ED50 ([20]; C203, sc, subcutaneous, read-out: ED50, Subcutaneous): 7.5 mg/kg
CCC1OC(=O)CC(O)C(C)C(OC2OC(C)C(O)C(N(C)C)C2O)C(CC=O)CC(C)C(=O)C=CC(C)=CC1COC(=O)Cc1ccc([N+](=O)[O-])cc1 (centres unmarked) [Compound 65]	1	1	0.125	0.125	0.125	0.125	0.125	0.125	0.125	0.125	0.03	0.06	0.195	0.78	< 0.05	3.12	3.12	0.39	0.195	73.3%	minimal inhibitory concentration (MIC) [22]: 3.12; minimal inhibitory concentration (MIC) [23]: 3.12; minimal inhibitory concentration (MIC) [24]: 3.12; minimal inhibitory concentration (MIC) [25]: 3.12; minimal inhibitory concentration (MIC) [26]: 1.56; minimal inhibitory concentration (MIC) [27]: 3.12
CCC1OC(=O)CC(O)C(C)C(OC2OC(C)C(O)C(N(C)C)C2OC(C)=O)C(CC=O)CC(C)C(=O)C=CC(C)=CC1COC(=O)C(C)(C)C (centres unmarked) [Compound 67]	1	1	0.25	0.25	0.25	0.25	0.25	0.25	0.25	0.25	0.06	0.125	< 0.048	0.39	< 0.048	3.12	3.12	1.56	< 0.78	80%	minimal inhibitory concentration (MIC) [22]: 12.5; minimal inhibitory concentration (MIC) [23]: 6.25; minimal inhibitory concentration (MIC) [24]: 6.25; minimal inhibitory concentration (MIC) [25]: 3.12; minimal inhibitory concentration (MIC) [26]: 3.12; minimal inhibitory concentration (MIC) [27]: 1.56
CCC1OC(=O)CC(O)C(C)C(OC2OC(C)C(O)C(N(C)C)C2OC(C)=O)C(CC=O)CC(C)C(=O)C=CC(C)=CC1COC(=O)CCCC(=O)OC (centres unmarked) [Compound 71]	2	2	0.25	0.25	0.25	0.25	0.25	0.25	0.5	0.25	0.03	0.25	0.195	12.5	0.78	6.25	6.25	0.78	1.56	60%	minimal inhibitory concentration (MIC) [22]: 50; minimal inhibitory concentration (MIC) [23]: 12.5; minimal inhibitory concentration (MIC) [24]: 12.5; minimal inhibitory concentration (MIC) [25]: 3.12; minimal inhibitory concentration (MIC) [26]: 3.12; minimal inhibitory concentration (MIC) [27]: 6.25
CCC1OC(=O)CC(O)C(C)C(OC2OC(C)C(O)C(N(C)C)C2OC(C)=O)C(CC=O)CC(C)C(=O)C=CC(C)=CC1COC(=O)OC (centres unmarked) [Compound 73]	1	2	0.25	0.25	0.25	0.25	0.25	0.25	0.25	0.25	0.03	0.25	0.097	0.39	0.097	6.25	6.25	0.78	0.39	0%	minimal inhibitory concentration (MIC) [22]: 6.25; minimal inhibitory concentration (MIC) [23]: 6.25; minimal inhibitory concentration (MIC) [24]: 3.12; minimal inhibitory concentration (MIC) [25]: > 50; minimal inhibitory concentration (MIC) [26]: 6.25; minimal inhibitory concentration (MIC) [27]: 3.12
CCC1OC(=O)CC(O)C(C)C(OC2OC(C)C(O)C(N(C)C)C2OC(C)=O)C(CC=O)CC(C)C(=O)C=CC(C)=CC1COC(=O)NCc1ccccc1 (centres unmarked) [Compound 75]	0.5	1	0.125	0.25	0.125	0.25	0.125	0.125	0.125	0.25	0.03	0.125	0.048	0.78	< 0.048	6.25	6.25	0.78	0.39	100%	minimal inhibitory concentration (MIC) [22]: 6.25; minimal inhibitory concentration (MIC) [23]: 3.12; minimal inhibitory concentration (MIC) [24]: 6.25; minimal inhibitory concentration (MIC) [25]: > 50; minimal inhibitory concentration (MIC) [26]: 12.5; minimal inhibitory concentration (MIC) [27]: 3.12
